# Data taken from patent publication US20090035270A1, “COMBINATION THERAPY USING ANTI-ANGIOGENIC AGENTS AND TNF alpha” (priority 2001, published 2009).
# Experiments:
# [1] = test system: HUVEC; assay type: cell-based
# Experimental: To determine the effect of spheroid culture on cell viability, spheroids and fibronectin-adherent HUVEC were recovered between 6 and 72 hours after plating, serially diluted and further cultured for an additional 48 hours before relative cell number was determined. A shift-to-the left or a flattening of the dilution curve indicates decreased viability.
# To test whether integrins modulate TNF-induced apoptosis, we cultured HUVEC on fibronectin (integrin-dependent adhesion) or as spheroids (integrin-independent adhesion) in the absence or presence of TNF (200 ng/ml) and of IFNγ (330 ng/ml), an enhancer of TNF cytotoxicity (Dealtry et al., Eur. J. Immunol. 17, 689-693 (1987)). […] To examine the effect of TNF±IFNγ on cell survival we determined the viability of untreated and treated cultures. […]
# For survival, HUVEC spheroids plated at 1×10^6 cells/ml in 1% BSA-coated 24 mm wells, or adherent cells plated at 4×10^5 cells in 3 μg/ml fibronectin-coated 35 mm wells of non-tissue culture plates (Evergreen Scientific), were stimulated with TNFα (200 ng/ml=10^4 U/ml)±IFNγ (330 ng/ml=10^4 U/ml). […] Relative cell number was assessed 48 hours later by measuring MTT conversion during the last 4 hours of culture. […]
# [2] = test system: BN-175 syngeneic soft tissue sarcoma; test: Isolated limb perfusion (ILP) of BN rats bearing BN-175 soft tissue sarcoma; assay type: in vivo; conditions: ILP 30 min; EMD121974 500 μg (plus 100 mg/kg i.p.); TNF 50 μg; 6 days after ILP
# Experimental: FIG. 7. Decreased integrin ligation enhances TNF cytotoxicity in in vivo. BN rats bearing the BN-175 syngeneic soft tissue sarcoma were treated with EMD121974 (□), TNF (Δ) or EMD121974/TNF (▪) by ILP technique. (◯) sham-treated rats. Tumor growth was measured for 6 days after ILP. Results represent the mean tumor volume ±s.e.m. (n=6). Small fragments of the syngeneic soft tissue sarcoma BN-175 were implanted in the right hind limb of male BN rats, and treatment started when diameter reached 12-14 mm (Manusama et al., Oncol Rep. 6, 173-177. (1999)). The femoral artery and vein were canulated with silastic tubing and collaterals occluded with a tourniquet. The perfusion was performed for 30 min with 5 ml Heamaccel® (2.4 ml/min) in which the drugs were added as boluses (EMD121974, 500 μg, end concentration in perfusate 170 μM; TNF, 50 μg). The perfusate was oxygenated and the leg kept on 38-39° C. with a warm mattress. Rats perfused with EMD121974 also received systemic administration of the peptide 2 hours before and 3 hours after ILP (100 mg/kg i.p.). Tumor diameter was measured in two directions by caliper measurements and tumor volume (V) was calculated (V= 0.4)(A^2×B, where B represents the largest diameter and A the diameter perpendicular to B). 6 rats were treated per group. Local and systemic side effects were evaluated as described (Manusama et al., Oncol. Rep. 6, 173-177. (1999)). […]
# [3] = target: T1, integrin αVβ3 (Homo sapiens, UniProt P05106+P06756); test: Cell detachment assay, HUVEC on gelatin; assay type: cell-based; conditions: graded peptide concentrations; 2 hours
# T1 construct: EMD121974 disrupted αVβ3-mediated HUVEC adhesion on gelatin; endogenous in cells; host or cells: HUVEC (primary, passages 3 to 7)
# Experimental: (§1) Maxisorp II ELISA plates were coated with 1 μg/well of fibrobnectin or 0.5% gelatin overnight at 4° C. in PBS. Coated wells were rinsed and blocked with 1% BSA for 2 hours at 37° C. and rinsed before use. 2×10^4 c/well in basal medium without FCS were added and briefly sedimented by centrifugation (40×g). Cells were let adhere for 2 hours at 37° C. before peptides were added at graded concentrations. After 2 hours, wells were rinsed with warm PBS, and attached cells were fixed in 2% paraformaldehyde, stained with 0.5% crystal violet (Sigma Chemie) and quantified by O.D. reading at 620 nm (Packard Spectra Count). Results are given as O.D. values and represent the mean of duplicate wells ±s.d. of specific adhesion (= adhesion on ECM protein minus adhesion on BSA).
# [4] = target: T2, α5β1 (Homo sapiens, UniProt P05556+P08648); test: Cell detachment assay, HUVEC on fibronectin; assay type: cell-based; conditions: graded peptide concentrations; 2 hours
# T2 construct: HUVEC adhere to immobilized fibronectin via αVβ3 and α5β1 integrins; endogenous in cells; host or cells: HUVEC (primary, passages 3 to 7)
# Experimental: as §1
# [5] = test system: HUVEC; test: Detection of apoptotic HUVEC in culture (YoPro-1 staining); assay type: cell-based, human; conditions: peptide 300 μM; TNF 200 ng/ml; IFNγ 330 ng/ml
# Experimental: To test whether integrins modulate TNF-induced apoptosis, we cultured HUVEC on fibronectin (integrin-dependent adhesion) or as spheroids (integrin-independent adhesion) in the absence or presence of TNF (200 ng/ml) and of IFNγ (330 ng/ml), an enhancer of TNF cytotoxicity (Dealtry et al., Eur. J. Immunol. 17, 689-693 (1987)). […] In contrast, spheroids treated with TNF±IFNγ increased uptake of YoPro-1 (an increase suppressed by caspase inhibitors BOC, Z-VAD, IETD and DVED), DNA fragmentation, caspase-3 activation and cleavage of PARP (FIG. 2a, 2b and data not shown). To examine the effect of TNF±IFNγ on cell survival we determined the viability of untreated and treated cultures. […] Treatment with IFNγ alone was not cytotoxic (data not shown). HUVEC adhere to immobilized fibronectin via αVβ3 and α5β1 integrins (Rüegg et al., Nature Med. 4, 408-414 (1998)). To test for the individual contribution of these integrins to cell survival on fibronectin, we cultured HUVEC on plastic-immobilized mAbs (imAbs) directed against αVβ3, α1, α5 and α4 integrins.
# For morphological evaluation, spheroids were embedded in Epon (Fluka Chemie) and thick sections were stained with 1% Methylene/Azur blue. For immunostaining, frozen spheroid sections were fixed in 4% (Fluka Chemis, Buchs, Switzerland) formaldehyde. After blocking with 1% BSA, sections were sequentially incubated for 1 hour with primary mAb (20 μg/ml) and a Cyan3-labeled GaM antiserum (West Grove, Pa., USA). For the TUNEL reaction, frozen spheroids sections were fixed in 4% paraformaledhyde and processed as described (Ruegg et al., I.e.). Spherouids were countsrstained with propidium iodide for total DNA content. […] The apoptosis index was determined by calculating the ratio between the green (TUNEL staining of fragmented DNA) and red (propidium iodide staining by total DNA) pixels. Number of analyzed spheroids per condition were: C, 31; T, 21; TI, 12. […] Cultures were viewed by inverted fluorescence microscopy (Leica DM IRB, Heerbrugg, Switzerland). […]
# [6] = test system: BN175 tumor cells; test: Sensitivity of BN175 tumor cells in vitro; assay type: cell-based, rat; conditions: unpublished observation
# T1 sequence (P06756 31-889 limits assumed): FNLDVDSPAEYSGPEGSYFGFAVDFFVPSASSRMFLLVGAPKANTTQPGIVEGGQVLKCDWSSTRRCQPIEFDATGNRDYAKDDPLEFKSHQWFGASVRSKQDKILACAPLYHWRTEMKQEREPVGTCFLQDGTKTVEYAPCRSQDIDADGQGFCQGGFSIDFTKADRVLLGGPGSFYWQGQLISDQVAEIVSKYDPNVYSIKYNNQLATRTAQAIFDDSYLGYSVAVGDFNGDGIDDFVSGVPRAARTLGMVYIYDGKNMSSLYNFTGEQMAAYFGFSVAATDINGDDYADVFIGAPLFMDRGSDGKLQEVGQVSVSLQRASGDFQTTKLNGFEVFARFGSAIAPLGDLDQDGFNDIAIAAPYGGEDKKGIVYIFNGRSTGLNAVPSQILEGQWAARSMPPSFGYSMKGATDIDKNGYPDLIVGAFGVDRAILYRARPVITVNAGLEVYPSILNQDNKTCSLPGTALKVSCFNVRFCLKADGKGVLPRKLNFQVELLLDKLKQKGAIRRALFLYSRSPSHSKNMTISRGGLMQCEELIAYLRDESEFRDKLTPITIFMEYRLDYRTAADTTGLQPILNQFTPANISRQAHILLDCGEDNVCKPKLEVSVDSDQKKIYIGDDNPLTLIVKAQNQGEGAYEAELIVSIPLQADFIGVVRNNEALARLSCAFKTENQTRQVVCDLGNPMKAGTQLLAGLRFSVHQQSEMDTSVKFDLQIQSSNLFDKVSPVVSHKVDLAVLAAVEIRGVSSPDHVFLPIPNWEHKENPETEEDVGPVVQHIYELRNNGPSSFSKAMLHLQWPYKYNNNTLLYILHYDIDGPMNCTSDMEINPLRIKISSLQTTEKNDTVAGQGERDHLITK
# T1 sequence (P06756 891-1048 partner limits assumed): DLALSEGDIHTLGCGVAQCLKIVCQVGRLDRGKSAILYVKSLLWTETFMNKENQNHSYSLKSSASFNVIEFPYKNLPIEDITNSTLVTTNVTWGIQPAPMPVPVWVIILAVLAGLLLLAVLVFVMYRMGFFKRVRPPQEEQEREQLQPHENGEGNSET
# T1 sequence (P05106 27-788): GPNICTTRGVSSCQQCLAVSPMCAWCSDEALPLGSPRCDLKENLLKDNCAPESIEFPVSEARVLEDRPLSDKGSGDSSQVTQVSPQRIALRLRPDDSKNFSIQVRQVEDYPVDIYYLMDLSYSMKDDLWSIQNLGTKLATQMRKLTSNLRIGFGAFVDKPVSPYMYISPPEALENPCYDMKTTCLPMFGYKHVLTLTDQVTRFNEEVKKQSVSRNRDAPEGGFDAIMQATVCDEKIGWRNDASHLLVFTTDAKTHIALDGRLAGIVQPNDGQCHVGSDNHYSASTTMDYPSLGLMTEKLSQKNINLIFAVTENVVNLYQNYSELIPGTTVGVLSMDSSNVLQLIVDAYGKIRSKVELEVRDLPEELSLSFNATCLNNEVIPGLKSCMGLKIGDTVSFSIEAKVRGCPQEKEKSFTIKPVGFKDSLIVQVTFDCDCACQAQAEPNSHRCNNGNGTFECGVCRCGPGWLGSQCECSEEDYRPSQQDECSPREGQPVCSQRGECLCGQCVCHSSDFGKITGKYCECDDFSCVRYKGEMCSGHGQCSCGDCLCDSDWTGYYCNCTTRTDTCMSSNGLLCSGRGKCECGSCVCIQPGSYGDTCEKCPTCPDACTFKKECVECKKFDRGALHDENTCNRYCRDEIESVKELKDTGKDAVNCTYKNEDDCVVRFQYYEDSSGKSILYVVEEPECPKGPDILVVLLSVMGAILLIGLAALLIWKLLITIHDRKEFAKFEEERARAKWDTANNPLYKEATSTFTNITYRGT
# T2 sequence (P08648 42-894 limits assumed): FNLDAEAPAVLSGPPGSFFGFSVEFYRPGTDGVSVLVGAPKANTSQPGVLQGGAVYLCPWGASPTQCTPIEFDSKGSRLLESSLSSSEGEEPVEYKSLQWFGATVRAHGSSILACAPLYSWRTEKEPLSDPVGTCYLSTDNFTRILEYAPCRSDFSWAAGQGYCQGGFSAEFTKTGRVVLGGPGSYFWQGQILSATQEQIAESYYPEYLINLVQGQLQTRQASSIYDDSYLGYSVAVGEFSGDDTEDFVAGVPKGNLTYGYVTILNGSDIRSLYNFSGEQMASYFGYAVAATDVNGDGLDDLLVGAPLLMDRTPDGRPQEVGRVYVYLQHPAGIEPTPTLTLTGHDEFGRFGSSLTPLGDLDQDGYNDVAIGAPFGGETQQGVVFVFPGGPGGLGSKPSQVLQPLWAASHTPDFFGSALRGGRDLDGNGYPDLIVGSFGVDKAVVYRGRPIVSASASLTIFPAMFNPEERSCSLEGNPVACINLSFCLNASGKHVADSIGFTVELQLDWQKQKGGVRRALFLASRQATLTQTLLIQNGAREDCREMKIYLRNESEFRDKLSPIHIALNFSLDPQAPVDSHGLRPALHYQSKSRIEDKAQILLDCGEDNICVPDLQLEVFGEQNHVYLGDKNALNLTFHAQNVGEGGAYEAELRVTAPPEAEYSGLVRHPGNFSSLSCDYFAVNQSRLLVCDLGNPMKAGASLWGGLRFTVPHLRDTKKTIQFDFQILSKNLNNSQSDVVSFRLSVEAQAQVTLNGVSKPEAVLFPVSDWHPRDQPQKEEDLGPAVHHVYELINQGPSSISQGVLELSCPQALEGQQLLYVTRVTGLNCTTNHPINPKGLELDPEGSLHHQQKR
# T2 sequence (P08648 895-1049 partner limits assumed): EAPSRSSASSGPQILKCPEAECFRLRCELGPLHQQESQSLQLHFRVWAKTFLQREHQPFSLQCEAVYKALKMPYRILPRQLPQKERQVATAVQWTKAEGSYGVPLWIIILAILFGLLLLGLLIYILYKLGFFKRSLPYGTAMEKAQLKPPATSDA
# T2 sequence (P05556 21-798): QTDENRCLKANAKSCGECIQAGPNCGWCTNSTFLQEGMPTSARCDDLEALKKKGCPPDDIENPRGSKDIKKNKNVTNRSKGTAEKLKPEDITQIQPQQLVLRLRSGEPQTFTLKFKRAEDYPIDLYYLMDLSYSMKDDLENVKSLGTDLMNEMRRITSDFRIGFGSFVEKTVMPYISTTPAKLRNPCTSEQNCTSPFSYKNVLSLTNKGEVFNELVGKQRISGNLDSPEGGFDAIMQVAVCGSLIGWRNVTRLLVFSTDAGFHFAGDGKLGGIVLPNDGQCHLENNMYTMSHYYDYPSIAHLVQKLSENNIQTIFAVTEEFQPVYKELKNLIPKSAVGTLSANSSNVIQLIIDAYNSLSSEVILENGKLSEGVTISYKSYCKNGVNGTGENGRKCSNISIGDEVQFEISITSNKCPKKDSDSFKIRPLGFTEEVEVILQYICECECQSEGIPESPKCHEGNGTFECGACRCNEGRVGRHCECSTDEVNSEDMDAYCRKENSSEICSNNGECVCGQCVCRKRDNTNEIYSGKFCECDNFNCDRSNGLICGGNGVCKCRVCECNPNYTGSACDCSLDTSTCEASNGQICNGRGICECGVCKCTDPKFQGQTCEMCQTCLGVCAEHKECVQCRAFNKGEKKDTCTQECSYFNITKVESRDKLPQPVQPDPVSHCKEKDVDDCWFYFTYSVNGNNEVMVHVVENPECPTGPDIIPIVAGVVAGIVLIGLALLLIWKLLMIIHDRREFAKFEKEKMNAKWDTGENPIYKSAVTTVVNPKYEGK
structure (smiles),measurement,setting,value
"CC(C)[C@H]1C(=O)N[C@@H](CCCN=C(N)N)C(=O)NCC(=O)N[C@@H](CC(=O)O)C(=O)N[C@H](Cc2ccccc2)C(=O)N1C [EMD121974, cyclo-(Arg-Gly-Asp-DPhe-NMeVal)]","cell viability / survival of fibronectin-adherent HUVEC, agent alone","[1]; fibronectin-adherent, TNF 200 ng/ml ± IFNγ 330 ng/ml, EMD peptide 300 μM",neither TNF/IFNγ nor EMD121974 alone affected survival
same,"survival of HUVEC on fibronectin, combined exposure to TNF/IFNγ and peptide","[1]; peptide 300 μM, TNF 200 ng/ml, IFNγ 330 ng/ml",reduced survival
same,tumor growth,[2],no impact on tumor growth
same,αVβ3-mediated HUVEC adhesion on gelatin,[3],disrupted
same,α5β1 component of the α5β1/αVβ3-mediated adhesion to fibronectin,[4],does not affect
same,"apoptosis and detachment of HUVEC on fibronectin, combined exposure to TNF/IFNγ and peptide",[5],increased apoptosis and detachment
same,sensitivity of BN175 tumor cells to αVβ3 selective inhibitors,[6],low sensitivity
